{"source": "patent US10858373B2", "about": "“Heterocyclic spiro compounds as MAGL inhibitors” (Pfizer Inc., priority 2017, dated 2020)", "key": {"[1]": {"target": "T1, human recombinant Monoacylglycerol Lipase (Homo sapiens (Human), UniProt Q99685)", "T1 sequence (Q99685 whole entry)": "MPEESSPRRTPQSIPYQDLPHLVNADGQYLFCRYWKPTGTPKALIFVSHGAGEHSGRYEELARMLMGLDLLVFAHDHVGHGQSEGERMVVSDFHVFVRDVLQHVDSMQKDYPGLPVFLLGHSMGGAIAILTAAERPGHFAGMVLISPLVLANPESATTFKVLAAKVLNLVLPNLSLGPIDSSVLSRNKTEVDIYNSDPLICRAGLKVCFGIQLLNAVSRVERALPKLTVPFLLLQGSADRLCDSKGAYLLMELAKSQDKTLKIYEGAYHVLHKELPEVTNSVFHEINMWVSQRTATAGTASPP", "assay": "MAGL inactivation (enzyme progress curves, kinact/KI)", "assay_type": "biochemical", "settings": "from plot of Kobs vs. compound concentration; T=0 min protocol; geometric mean of 2-4 determinations"}, "[2]": {"target": "T1, human recombinant Monoacylglycerol Lipase", "assay": "MAGL Enzymatic Assay (fluorogenic substrate 7-HCA), IC50", "assay_type": "biochemical", "settings": "geometric mean of 2-4 determinations unless otherwise indicated", "method": "An equal volume of 7-HCA in assay buffer with 10% DMSO was added either immediately (T=0 min) or after a 30 minute incubation (T=30 min) to initiate the reaction. […] After these dilutions, the final concentration of the test compound ranged from 3 μM to 0.03 nM. […] IC50 values were generated based on a four parameter fit model using ABASE software from IDBS."}}, "note": "Like-named read-outs stand apart in the source and are kept apart here."}
{"smiles": "CN(C(=O)C(C)(C)C)C1COC2(CCN(C(=O)ON3C(=O)CCC3=O)CC2)C1", "note": "(stereo not drawn) [Example 51, N-(8-{[(2,5-dioxopyrrolidin-1-yl)oxy]carbonyl}-1-oxa-8-azaspiro[4.5]dec-3-yl)-N,2,2-trimethylpropanamide]", "values": [{"measurement": "MAGL Kinact/Kl", "setting": "[1]", "result": "3290 1/s per M"}, {"measurement": "IC50", "setting": "[2]; substrate added after a 30 minute incubation (T=30 min), read-out: MAGL (T = 30 min) IC50", "result": "> 247", "unit": "nM"}, {"measurement": "IC50", "setting": "[2]; substrate added immediately (T=0 min), read-out: MAGL (T = 0 min) IC50", "result": "> 692", "unit": "nM"}]}
